# Patent US20070197610A1, “Benzisoxazoles” (Janssen Pharmaceutica N.V., priority 2004, published 2007)
# Assays:
# [1] = biological target: T1, D-amino acid oxidase (DAAO; EC 1.4.3.3) (Sus scrofa, UniProt P00371); assay: In vitro inhibition of DAAO using the peroxide method; type: biochemical; conditions: DAAO 2.6 μg/ml, D-Alanine 7.5 mM, 60 minutes at room temperature, absorbance at 492 nm; read-out: H2O2 method pIC50 (converted)
# T1 construct: purchased Sigma
# Description: (§1) D-amino acid oxidase (DAAO; EC 1.4.3.3) catalyzes the oxidation of D-stereo isomers of amino acids.
# Two in vitro methods were developed to measure the catalytic activity of DAAO: • 1. The peroxide method: measures the amount of peroxide produced, using an auxiliary enzyme horse radish peroxidase • 2. The keto acid method: measures the ax keto acid formed
# The general reaction to determine the amount of peroxide produced by catalytic action of DAAO can be described as: [drawing 36]
# DAAO (2.6 μg/ml) is incubated for 60 minutes at room temperature with the substrate D-Alanine (7.5 mM) in 0.019 M sodiumpyrophosphate buffer containing FAD(5.5 μg/ml), HRP (200 μg/ml), DHBS (1667 μg/ml) and 4-aminoantipyrine(500 μg/ml) in a total volume of 50 μl. Compounds were added in a 0.5 μl volume to a final DMSO concentration of 1%. The reaction was terminated by addition of 30 μl of 0.5M phosphate buffer pH 5.0. The quinone-imine dye was detected by measuring the absorbance at 492 nm. All products were purchased from Sigma.
# [2] = biological target: T1, D-amino acid oxidase (DAAO; EC 1.4.3.3); assay: In vitro inhibition of DAAO using the keto acid method; type: biochemical; conditions: DAAO 20 μg/ml, D-Alanine 15 mM, 10 min at room temperature, pH 8.3, absorbance at 450 nm; read-out: keto acid method pIC50 (converted)
# Description: as §1
# Two in vitro methods were developed to measure the catalytic activity of DAAO: • 1. The peroxide method: measures the amount of peroxide produced, using an auxiliary enzyme horse radish peroxidase • 2. […]
# DAAO (20 μg/ml) is incubated for 10 min at room temperature with the substrate D-Alanine (15 mM) in 0.19 mM pyrophosphatebuffer pH 8.3 containing FAD (11 μg/ml), and bovine liver catalase (EC 1.11.1.6) (4.3 mg/ml) in a total volume of 50 μl. Compounds were added in a 0.5 μl volume to a final DMSO concentration of 1%. The reaction is stopped by adding 25 μl 1 mM […] dinitrophenylhydrazine in 1N HCl, After a second 10 min incubation at room temperature, 175 μl 0.6 N NaOH is added and the formed hydrazone is detected by measuring the absorbance at 450 nm. All products were purchased from Sigma.
# T1 sequence (P00371 whole entry): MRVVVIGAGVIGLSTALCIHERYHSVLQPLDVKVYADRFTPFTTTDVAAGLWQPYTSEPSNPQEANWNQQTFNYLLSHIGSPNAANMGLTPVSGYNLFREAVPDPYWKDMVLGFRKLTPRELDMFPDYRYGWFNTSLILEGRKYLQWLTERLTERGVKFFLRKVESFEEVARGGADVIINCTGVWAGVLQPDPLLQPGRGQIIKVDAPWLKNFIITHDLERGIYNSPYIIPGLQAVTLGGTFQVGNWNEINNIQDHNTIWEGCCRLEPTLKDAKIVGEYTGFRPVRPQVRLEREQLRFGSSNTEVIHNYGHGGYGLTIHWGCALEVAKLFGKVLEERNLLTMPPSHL
Structure (SMILES),melting point [°C],IC50 [1] [nM],IC50 [2] [nM]
COc1ccc2c(O)noc2c1,208,–,–
CCCNC(=O)n1oc2ccc(Cl)cc2c1=O [Compound 25],–,631,794
Cc1cc(C(=O)Oc2noc3cc(Cl)ccc23)no1 [Compound 18],–,31.6,126
Cc1ccc2on(C(=O)NC(C)C)c(=O)c2c1 [Compound 28],–,3980,2000
Cc1onc(-c2c(Cl)cccc2Cl)c1C(=O)Oc1noc2ccc(Cl)cc12 [Compound 17],–,631,1000
COc1ccc2c(=O)n(C(=O)NC(C)C)oc2c1 [Compound 1],121,–,–
O=C(/N=c1/c2ccccc2on1C(=O)c1ccccc1)c1ccccc1 [Compound 10],97 to 100,–,–
Cc1ccc2on(C(=O)NC(C)(C)C)c(=O)c2c1 [Compound 26],–,3160,2000
CC(C)NC(=O)n1oc2ccccc2c1=O [Compound 29],–,–,3980
Cc1ccc2onc(OC(=O)c3cc(C)on3)c2c1 [Compound 19],126 to 128,3980,5010
Cc1onc(-c2c(Cl)cccc2Cl)c1NC(=O)n1oc2ccc(Cl)cc2c1=O [Compound 21],–,631,1000
CC(C)(C)NC(=O)n1oc2cc(Cl)ccc2c1=O [Compound 27],–,50.1,200
CC(C)NC(=O)n1oc2ccc(Cl)cc2c1=O [Compound 23],–,794,1000
CNC(=O)n1oc2ccc(Cl)cc2c1=O [Compound 22],–,631,794
